Drawing on patent US6528653B2, “Thienopyrrolidinones” (Hoffmann-La Roche, Inc., priority 2000, dated 2003), this text covers IC50 for four compounds.

SMILES strings stand for the structures.

For the test, the system named is LPS-induced TNF-α production in THP-1 cells. Nature of the test: Inhibition of LPS-induced TNF-α production in THP-1 cells (TNF-α ELISA). To be noted: Homo sapiens, 30 min preincubation with compound, LPS 4 hours, TNF-α in supernatant by ELISA, percentage of DMSO control. Type of test: cell-based. The procedure: The assay uses a modification of the methods described in Blifield et al., Transplantation, 51:498-503 (1991).
(a) Induction of TNF Biosynthesis
THP-1 cells were suspended in serum free culture medium LGM-3 (Clonetics, Bio Whittaker, UK, Cat. No. CC-3211), at a concentration of 5×10^5 cells/ml and then plated in 96 well-plates (0.2 ml aliquots in each well). Test compounds were dissolved in DMSO and then diluted with the culture medium such that the final DMSO concentration was 1%. Twenty five μl aliquots of test solution or only medium with DMSO (control) were added to each well giving a final DMSO concentration of 0.1%. The cells were incubated for 30 min. at 37° C. LPS (Sigma Chemical Company, UK) was added to the wells at a final concentration of 2 μg/nml, and cells were incubated for an additional 4 hours. At the end of the incubation period, culture supernatants were collected and the amount of TNF-α present was determined using a commercial TNF-α ELISA assay as described below.
(b) ELISA Assay. Quantikine™ human TNF-α (R&D Systems Europe Ltd., UK) (Cat. No. DTA50 in 2000)
The assay was carried out according to the manufacturer's instructions with the following modifications. Assay plates were centrifuged at 200 g and a 200 μl sample added to each well. TNF-α standard was made up and diluted in LGM-3 culture medium. Samples in the ELISA plate were then incubated overnight at 4° C. instead of 2 hours at 37° C. TNF-α production for each condition was calculated and expressed as a percentage of DMSO control to enable IC50 calculation.
On the technique in general: In an ELISA, binding on a coated surface is turned into a signal by an enzyme label.

By IC50 is commonly meant the point on the concentration scale where inhibition reaches its midpoint.

On to `O=C1Nc2sccc2/C1=C/c1ccc[nH]1` [Example 1, (Z)-4,6-Dihydro-4-[(1H-pyrrol-2yl)methylene]thieno[2,3-b]pyrrol-5-one], for which the IC50 is 5.08 µM.

`O=C1Nc2sccc2/C1=C/c1c[nH]nc1-c1ccccc1` [Example 9, (Z)-4,6-Dihydro-4-[(3-phenyl-1H-pyrazol-4-yl)methylene]-thieno[2,3-b]pyrrol-5-one]: the IC50 was found to be 1.1 µM.

Consider `COc1cc[nH]c1/C=C1\C(=O)Nc2sccc21` [Example 13, (Z)-4,6-Dihydro-4-[(3-methoxy-1H-pyrrol-2-yl)methylene]-thieno[2,3-b]pyrrol-5-one], for which the IC50 stood at 1.59 µM.

For the compound `N#Cc1cc2c(s1)NC(=O)/C2=C\c1ccc[nH]1` [Example 20, (Z)-5,6-Dihydro-5-oxo-4-[(1H-pyrrol-2-yl)methylene]-4H-thieno[2,3-b]pyrrole-2-carbonitrile], the IC50 was 3.69 µM.
